Laboratory results reported in patent US8962648B2, “Tricyclic compounds and PBK inhibitors containing the same” (OncoTherapy Science, Inc., priority 2010, dated 2015).
Counter-ions that a name gives are not always drawn.

Key:
PBK = PBK (Homo sapiens (Human), UniProt Q96KB5); experiment: Kinase assay (IMAP fluorescence polarization, FITC-labeled histone H3 peptide); format: biochemical; settings: PBK 0.8 ng/micro-L, 50 micro-M ATP, 100 nM FITC-labeled histone H3 peptide, room temperature 1 hour
How it was run: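 PBK at 0.8 ng/µL with 100 nM FITC-histone H3 peptide and 50 µM ATP in HEPES pH 7.4, 0.3 mM MgCl2, 2 mM DTT, reacted 1 h at room temperature. Phosphorylation read by IMAP fluorescence polarization; IC50 from four-parameter fit.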

A549 cells = experiment: Cell-based assay, cellular growth (Cell Counting Kit-8, 72 hours); settings: Homo sapiens, A549, 72 h
How it was run: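 Growth read-out after inhibitor treatment of plated cells; potency expressed as IC50.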

BT-549 cells = experiment: as above; settings: Homo sapiens, BT549 cells
Method: (§1) 100 micro-L of cell suspension was seeded onto 96-well microtiter plate (ViewPlate-96FTC, PerkinElmer). […] Cellular growth was determined using Cell Counting Kit-8 (DOJINDO) at 72 hours after the exposure of the candidate inhibitors. […] Accurate IC50 values were calculated as described previously.

T47D cells = experiment: as above; settings: Homo sapiens, T47D, 72 h
Method: as §1

HT-1197 cells = experiment: Cell-based assay, cellular growth (Cell Counting Kit-8, 72 hours), PBK-negative control cells; settings: Homo sapiens, HT1197, 72 h
Method: as §1

22Rv1 cells = experiment: Cell-based assay, cellular growth (Cell Counting Kit-8, 72 hours); settings: Homo sapiens

PBK, sequence (Q96KB5 whole entry): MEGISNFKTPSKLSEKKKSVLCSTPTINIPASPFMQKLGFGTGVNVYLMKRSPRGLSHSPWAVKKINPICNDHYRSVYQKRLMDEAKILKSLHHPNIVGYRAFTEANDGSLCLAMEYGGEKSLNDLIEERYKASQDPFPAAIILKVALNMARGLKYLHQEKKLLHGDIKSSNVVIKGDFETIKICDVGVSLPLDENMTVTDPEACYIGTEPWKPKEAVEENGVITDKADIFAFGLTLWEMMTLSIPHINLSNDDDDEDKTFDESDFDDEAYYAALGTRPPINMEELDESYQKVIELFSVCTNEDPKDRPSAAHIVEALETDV

Compound: C[C@@H](CN)c1ccc(-c2c(O)ccc3[nH]c(=O)c4sccc4c23)cc1 [Compound 1160, (R)-9-(4-(1-aminopropan-2-yl)phenyl)-8-hydroxythieno[2,3-c]quinolin-4(5H)-one hydrochloride]
- IC50 (PBK): 0.64 nM
- IC50 (A549 cells): 56 nM
- IC50 (BT-549 cells): 54 nM
- IC50 (T47D cells): 57 nM
- IC50 (HT-1197 cells): 230 nM
- IC50 (22Rv1 cells): 69 nM

Compound: Cc1cc(O)c(-c2ccc([C@@H](C)CN)cc2)c2c1[nH]c(=O)c1sccc12 [Compound 1169, (R)-9-(4-(1-aminopropan-2-yl)phenyl)-8-hydroxy-6-methylthieno[2,3-c]quinolin-4(5H)-one hydrobromide]
- IC50 (A549 cells): 23 nM
- IC50 (BT-549 cells): 13 nM
- IC50 (T47D cells): 24 nM
- IC50 (22Rv1 cells): 22 nM

Compound: Cc1cc(O)c(-c2ccc([C@@H](C)CN)c(F)c2)c2c1[nH]c(=O)c1sccc12 [Compound 1318, (R)-9-(4-(1-aminopropan-2-yl)-3-fluorophenyl)-8-hydroxy-6-methylthieno[2,3-c]quinolin-4(5H)-one hydrochloride]
- IC50 (PBK; hydrochloride): 3.6 nM
- IC50 (A549 cells): 15 nM
- IC50 (BT-549 cells): 8.4 nM
- IC50 (T47D cells): 15 nM
- IC50 (HT-1197 cells): 63 nM

Compound: C[C@@H](CN(C)C)c1ccc(-c2c(O)cc(Cl)c3[nH]c(=O)c4sccc4c23)cc1 [Compound 1347, (R)-6-chloro-9-(4-(1-(dimethylamino)propan-2-yl)phenyl)-8-hydroxythieno [2,3-c]quinolin-4(5H)-one hydrochloride]
- IC50 (PBK): 43 nM
- IC50 (A549 cells): 100 nM
- IC50 (BT-549 cells): 110 nM
- IC50 (T47D cells): 260 nM
- IC50 (HT-1197 cells): 260 nM

Compound: CC[C@@H](CN)c1ccc(-c2c(O)cc(C)c3[nH]c(=O)c4sccc4c23)cc1 [Compound 1352, (R)-9-(4-(1-aminobutan-2-yl)phenyl)-8-hydroxy-6-methylthieno[2,3-c]quinolin-4(5H)-one hydrochloride]
- IC50 (PBK): 40 nM
- IC50 (A549 cells): 55 nM
- IC50 (BT-549 cells): 71 nM
- IC50 (T47D cells): 99 nM
- IC50 (HT-1197 cells): 340 nM

Compound: CNCCc1ccc(-c2c(O)cc(C)c3[nH]c(=O)c4sccc4c23)cc1 [Compound 1364, 8-hydroxy-6-methyl-9-(4-(2-(methylamino)ethyl)phenyl)thieno[2,3-c]quinolin-4(5H)-one hydrochloride]
- IC50 (PBK): 55 nM
- IC50 (A549 cells): 270 nM
- IC50 (BT-549 cells): 260 nM
- IC50 (T47D cells): 300 nM
- IC50 (HT-1197 cells): 660 nM
